In patent publication US11225503B2, “Crystobactamides” (HELMHOLTZ-ZENTRUM FÜR INFEKTIONSFORSCHUNG GMBH, priority 2013, dated 2022):
Where two headings read alike, the source gives them in different places.

Experiments:
E. coli gyrase = target: T1, E. coli gyrase (Escherichia coli, UniProt P0AES4+P0AES6); test: Gyrase supercoiling (inhibition) assay; assay type: biochemical
T1 construct: purchased Inspiralis (Norwich, UK)
Protocol: To test the anti-gyrase activity of cystobactamides, commercial E. coli gyrase supercoiling kits (Inspiralis) were used.
For IC50 determination the band intensity of the supercoiled plasmid was determined using Adobe Photoshop, plotted vs. [cystobactamide] and fitted using Hill's equation.
All natural products stock solutions and dilutions were prepared in 100% DMSO and added to the supercoiling reactions giving a final DMSO concentration of 5% (v/v).
(§1) Following natural product concentrations were used in the assay:
Control reactions were: no enzyme and a standard reaction in presence of 5% (v/v) DMSO.
All reaction samples were equilibrated for 10 minutes at room-temperature in the absence of DNA. Then the relaxed plasmid was added to start the reaction.
To determine IC50 values, the formation of supercoiled (gyrase) or relaxed (topoisomerase I, II IV) plasmid was quantified using Adobe Photoshop (Histogram mode). […] All determined IC50 values are the averages of three independent experiments.

[1] = target: T2, H. sapiens topoisomerase I (Homo sapiens, UniProt P11387); test: Topoisomerase I relaxation (inhibition) assay; assay type: biochemical
T2 construct: purchased Inspiralis (Norwich, UK)
T2 sequence (P11387 1-765): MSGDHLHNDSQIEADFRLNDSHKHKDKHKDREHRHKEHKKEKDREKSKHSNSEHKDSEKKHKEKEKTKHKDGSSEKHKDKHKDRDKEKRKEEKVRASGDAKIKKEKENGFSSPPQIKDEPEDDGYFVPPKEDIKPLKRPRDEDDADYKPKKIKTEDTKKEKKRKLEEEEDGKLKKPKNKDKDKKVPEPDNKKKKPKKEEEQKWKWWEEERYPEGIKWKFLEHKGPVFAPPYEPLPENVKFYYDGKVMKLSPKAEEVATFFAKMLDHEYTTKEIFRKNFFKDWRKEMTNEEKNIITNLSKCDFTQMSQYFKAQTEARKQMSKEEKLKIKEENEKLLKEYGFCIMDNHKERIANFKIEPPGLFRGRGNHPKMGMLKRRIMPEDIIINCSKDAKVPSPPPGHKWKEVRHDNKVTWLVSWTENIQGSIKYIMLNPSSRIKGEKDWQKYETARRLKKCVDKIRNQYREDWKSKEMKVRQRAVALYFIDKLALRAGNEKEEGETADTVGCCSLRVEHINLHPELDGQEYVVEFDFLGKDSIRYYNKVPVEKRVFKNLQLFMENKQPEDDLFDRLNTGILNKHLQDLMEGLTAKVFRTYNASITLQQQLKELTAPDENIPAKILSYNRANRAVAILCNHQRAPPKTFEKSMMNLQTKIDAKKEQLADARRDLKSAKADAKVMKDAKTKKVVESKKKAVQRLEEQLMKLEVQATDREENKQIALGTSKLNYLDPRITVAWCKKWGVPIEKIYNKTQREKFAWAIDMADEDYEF
Protocol: Aside the ATP-dependent type IIa topoisomerases like E. coli gyrase, topoIV and human topoII, the activity of cystobactamides on the ATP-independent human topoisomerase I was tested as well.
The topo I reactions were titrated with varying concentrations of A-D and resolved by agarose gel electrophoresis. For IC50 determination the band intensity of the supercoiled plasmid was determined using Adobe Photoshop, plotted vs. [cystobactamide] and fitted using Hill's equation.
as §1
Cystobactamide C: 300 μM; 30 μM; 3 μM
Control reactions were: no enzyme and a standard reaction in presence of 5% (v/v) DMSO. All reaction samples were equilibrated for 10 minutes at room-temperature in the absence of DNA. Then the relaxed plasmid was added to start the reaction
(§2) To determine IC50 values, the formation of supercoiled (gyrase) or relaxed (topoisomerase I, II IV) plasmid was quantified using Adobe Photoshop (Histogram mode). Plotting of these values versus the compound concentration yielded sigmoidal shaped curves, which were fitted using Hill's equation (Origin Pro 8.5). All determined IC50 values are the averages of three independent experiments.

[2] = target: T3, H. sapiens topoisomerase II (Homo sapiens, UniProt P11388); test: Topoisomerase II relaxation (inhibition) assay; assay type: biochemical; conditions: read-out: IC50, human topo II
T3 construct: purchased Inspiralis (Norwich, UK)
Protocol: The topo II reactions were titrated with varying concentrations of A-D and resolved by agarose gel electrophoresis. For IC50 determination the band intensity of the supercoiled plasmid was determined using Adobe Photoshop, plotted vs. [cystobactamide] and fitted using Hill's equation.
as §1
(§3) Control reactions were: no enzyme and a standard reaction in presence of 5% (v/v) DMSO. All reaction samples were equilibrated for 10 minutes at room-temperature in the absence of DNA. Then the relaxed plasmid was added to start the reaction.
as §2

DNA/gyrase complex = DNA/gyrase complex (Escherichia coli, UniProt P0AES4+P0AES6); conditions: cystobactamide D 18 μM, ciprofloxacin 1 μM
Protocol: (§4) (B) Here, standard gyrase reactions were inhibited using a constant amount of cystobactamide D and titrated with increasing amounts of ATP. If ATP and cystobactamide D would compete for binding at the ATP binding pocket on the gyrase GyrB subunit, increasing amounts of ATP would lead to the formation of supercoiled plasmid in the assay.
To test if cystobactamides stabilize the covalent complex between DNA gyrase and the nicked DNA substrate, proteinase K linearization assay were performed (see a). […] To detect linearized plasmid bands the relaxed plasmid was digested by the single-cutting restriction enzyme Ndel.

[3] = target: ATP binding pocket on GyrB of E. coli gyrase (Escherichia coli, UniProt P0AES4+P0AES6); conditions: constant cystobactamide D; ATP up to 10 mM (2000 fold cystobactamide concentration)
Text: as §4
To test if cystobactamides compete with ATP for binding to the ATP binding pocket on GyrB, standard gyrase supercoiling assays (see a) with varying ATP concentrations were performed. Standard reaction mixes (1 mM ATP) were supplemented with ATP (0.5M ATP stock solution, ATP was purchased from Sigma-Aldrich) to final ATP concentrations of 2.5; 5 and 10 mM. All reactions were performed in triplicates.

E. coli topoisomerase IV = target: T4, E. coli topoisomerase IV (Escherichia coli, UniProt P0AFI2+P20083); test: Topoisomerase IV relaxation (inhibition) assay; assay type: biochemical
T4 construct: purchased Inspiralis (Norwich, UK)
Protocol: Prokaryotic DNA gyrase and topoisomerase IV share a high degree of homology and gyrase inhibitors typically show a topoisomerase IV inhibitory activity.^8 To test the influence of the cystobactamides on topoisomerase IV a commercial E. coli topoisomerase IV kit (Inspiralis) was used.
The topo IV reactions were titrated with varying concentrations of A-D and resolved by agarose gel electrophoresis. For IC50 determination the band intensity of the supercoiled plasmid was determined using Adobe Photoshop, plotted vs. [cystobactamide] and fitted using Hill's equation.
as §1, §3, §2

T1 sequence (P0AES4 whole entry, one chain of several): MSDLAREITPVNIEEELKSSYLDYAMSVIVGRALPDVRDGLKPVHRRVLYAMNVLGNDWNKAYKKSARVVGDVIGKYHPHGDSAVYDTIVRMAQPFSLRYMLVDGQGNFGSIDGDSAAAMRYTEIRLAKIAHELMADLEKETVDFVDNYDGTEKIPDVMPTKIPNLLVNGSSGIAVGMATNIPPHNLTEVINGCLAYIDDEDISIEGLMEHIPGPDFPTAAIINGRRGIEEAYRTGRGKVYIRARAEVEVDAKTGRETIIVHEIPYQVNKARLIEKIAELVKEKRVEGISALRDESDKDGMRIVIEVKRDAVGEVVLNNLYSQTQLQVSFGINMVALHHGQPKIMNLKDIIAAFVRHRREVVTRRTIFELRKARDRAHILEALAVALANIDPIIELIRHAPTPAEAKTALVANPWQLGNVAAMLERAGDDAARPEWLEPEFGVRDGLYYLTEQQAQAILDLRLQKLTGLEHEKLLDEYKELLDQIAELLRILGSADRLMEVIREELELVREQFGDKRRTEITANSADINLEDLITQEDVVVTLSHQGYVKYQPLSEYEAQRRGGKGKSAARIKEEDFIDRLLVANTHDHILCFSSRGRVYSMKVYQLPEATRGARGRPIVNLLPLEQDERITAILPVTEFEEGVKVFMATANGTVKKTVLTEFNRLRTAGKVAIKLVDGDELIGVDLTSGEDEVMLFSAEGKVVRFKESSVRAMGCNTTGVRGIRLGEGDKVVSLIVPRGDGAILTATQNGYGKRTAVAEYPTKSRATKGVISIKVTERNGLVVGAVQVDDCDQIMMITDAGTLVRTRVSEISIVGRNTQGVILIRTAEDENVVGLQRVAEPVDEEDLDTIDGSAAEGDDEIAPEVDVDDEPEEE
T4 sequence (P20083 whole entry): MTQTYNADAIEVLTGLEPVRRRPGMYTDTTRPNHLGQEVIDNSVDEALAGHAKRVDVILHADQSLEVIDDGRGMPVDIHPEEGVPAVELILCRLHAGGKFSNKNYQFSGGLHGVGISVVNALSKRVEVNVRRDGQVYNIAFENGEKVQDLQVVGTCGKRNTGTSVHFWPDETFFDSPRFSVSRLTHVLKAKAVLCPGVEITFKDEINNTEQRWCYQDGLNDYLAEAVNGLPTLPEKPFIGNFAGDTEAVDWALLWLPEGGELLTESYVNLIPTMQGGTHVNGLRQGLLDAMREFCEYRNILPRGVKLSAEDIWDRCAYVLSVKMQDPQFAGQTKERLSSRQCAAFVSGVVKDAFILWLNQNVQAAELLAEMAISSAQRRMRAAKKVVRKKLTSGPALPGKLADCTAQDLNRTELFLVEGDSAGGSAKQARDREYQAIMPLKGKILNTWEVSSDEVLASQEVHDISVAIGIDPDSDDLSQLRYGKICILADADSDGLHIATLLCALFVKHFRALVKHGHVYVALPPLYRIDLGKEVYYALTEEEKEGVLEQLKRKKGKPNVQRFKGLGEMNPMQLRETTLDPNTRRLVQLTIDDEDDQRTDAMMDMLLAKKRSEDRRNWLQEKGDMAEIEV
T4 sequence (P0AFI2 whole entry): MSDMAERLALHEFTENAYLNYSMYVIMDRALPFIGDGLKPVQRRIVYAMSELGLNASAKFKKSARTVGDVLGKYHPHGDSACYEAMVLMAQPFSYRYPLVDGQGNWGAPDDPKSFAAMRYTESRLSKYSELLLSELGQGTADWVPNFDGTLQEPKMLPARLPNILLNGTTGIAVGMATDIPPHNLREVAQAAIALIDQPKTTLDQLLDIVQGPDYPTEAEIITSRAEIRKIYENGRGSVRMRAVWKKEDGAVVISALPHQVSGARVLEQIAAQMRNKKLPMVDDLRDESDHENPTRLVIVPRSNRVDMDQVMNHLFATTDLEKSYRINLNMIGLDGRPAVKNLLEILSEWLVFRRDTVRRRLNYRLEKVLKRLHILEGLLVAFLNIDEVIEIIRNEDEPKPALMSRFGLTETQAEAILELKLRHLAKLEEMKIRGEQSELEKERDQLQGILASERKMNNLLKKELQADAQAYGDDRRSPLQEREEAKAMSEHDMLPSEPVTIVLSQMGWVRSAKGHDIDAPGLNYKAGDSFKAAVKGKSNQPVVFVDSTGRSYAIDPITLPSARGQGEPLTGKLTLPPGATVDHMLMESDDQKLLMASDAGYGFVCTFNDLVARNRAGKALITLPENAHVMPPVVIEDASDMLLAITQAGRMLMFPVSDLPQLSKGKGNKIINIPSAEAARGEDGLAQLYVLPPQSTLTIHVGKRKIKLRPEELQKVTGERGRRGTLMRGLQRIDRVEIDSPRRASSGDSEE
T3 sequence (P11388 whole entry): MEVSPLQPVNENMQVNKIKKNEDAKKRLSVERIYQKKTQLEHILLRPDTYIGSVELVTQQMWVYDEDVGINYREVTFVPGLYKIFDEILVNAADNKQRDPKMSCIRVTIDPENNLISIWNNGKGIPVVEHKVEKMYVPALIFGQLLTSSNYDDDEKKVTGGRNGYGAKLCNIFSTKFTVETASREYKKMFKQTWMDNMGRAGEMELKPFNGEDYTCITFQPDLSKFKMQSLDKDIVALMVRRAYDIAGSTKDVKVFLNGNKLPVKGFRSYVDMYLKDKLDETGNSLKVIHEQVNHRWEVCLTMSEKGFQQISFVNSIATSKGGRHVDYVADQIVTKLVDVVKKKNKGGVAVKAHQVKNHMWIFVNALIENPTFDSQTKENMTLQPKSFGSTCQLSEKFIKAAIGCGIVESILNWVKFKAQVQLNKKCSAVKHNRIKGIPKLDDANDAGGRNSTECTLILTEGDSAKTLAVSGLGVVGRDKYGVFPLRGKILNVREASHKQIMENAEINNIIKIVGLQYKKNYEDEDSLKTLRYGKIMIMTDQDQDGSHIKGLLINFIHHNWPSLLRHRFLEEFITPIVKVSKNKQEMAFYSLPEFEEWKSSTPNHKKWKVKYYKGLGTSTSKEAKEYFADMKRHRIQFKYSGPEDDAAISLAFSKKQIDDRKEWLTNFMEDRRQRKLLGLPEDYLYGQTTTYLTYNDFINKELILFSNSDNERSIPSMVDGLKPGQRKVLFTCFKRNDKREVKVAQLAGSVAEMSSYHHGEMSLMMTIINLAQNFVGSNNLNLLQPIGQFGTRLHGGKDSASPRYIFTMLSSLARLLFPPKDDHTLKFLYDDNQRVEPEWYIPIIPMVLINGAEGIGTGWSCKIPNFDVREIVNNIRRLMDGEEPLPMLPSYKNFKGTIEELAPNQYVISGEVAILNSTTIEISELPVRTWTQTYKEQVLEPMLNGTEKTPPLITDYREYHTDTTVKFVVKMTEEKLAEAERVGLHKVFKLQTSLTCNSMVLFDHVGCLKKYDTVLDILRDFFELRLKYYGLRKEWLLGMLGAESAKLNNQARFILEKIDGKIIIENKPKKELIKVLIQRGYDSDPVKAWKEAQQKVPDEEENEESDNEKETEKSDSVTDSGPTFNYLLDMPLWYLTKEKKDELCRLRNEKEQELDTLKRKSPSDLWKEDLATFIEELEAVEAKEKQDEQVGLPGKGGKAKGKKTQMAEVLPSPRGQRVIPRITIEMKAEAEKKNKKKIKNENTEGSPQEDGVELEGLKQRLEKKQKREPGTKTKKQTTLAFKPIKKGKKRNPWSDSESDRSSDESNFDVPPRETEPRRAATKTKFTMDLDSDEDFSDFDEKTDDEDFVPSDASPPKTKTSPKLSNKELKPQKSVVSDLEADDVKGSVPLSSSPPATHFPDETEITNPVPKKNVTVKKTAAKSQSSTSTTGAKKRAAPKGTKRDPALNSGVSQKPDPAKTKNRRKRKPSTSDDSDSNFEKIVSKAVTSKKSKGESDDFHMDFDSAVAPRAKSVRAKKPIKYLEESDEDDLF
Sequence of DNA/gyrase complex (P0AES4 whole entry, one chain of several): as the sequence (P0AES4 whole entry, one chain of several) above

COc1cc(C(=O)O)ccc1NC(=O)c1ccc(NC(=O)c2ccc(NC(=O)C(NC(=O)c3ccc(NC(=O)c4ccc([N+](=O)[O-])cc4)cc3)C(OC)C(N)=O)cc2)c(OC)c1O (stereo not shown) [cystobactamide D]
IC50 (E. coli gyrase; E. coli gyrase 20.5 nM eq. 1 unit, read-out: apparent IC50, E. coli gyrase): 1 µM | IC50 (E. coli gyrase; E. coli gyrase, read-out: IC50 gyrase): 0.7 µM | IC50 (E. coli gyrase; table, averages of three independent experiments, read-out: IC50 in the Gyrase inhibition assay): 0.7 µM | IC50 [1]: ~33.6 µM | IC50 [2]: 41.2 µM | formation of linearized plasmid after proteinase K treatment (DNA/gyrase complex): formation of linearized plasmid | regain of gyrase activity on titration with ATP [3]: the gyrase activity is not regained | IC50 (E. coli topoisomerase IV; E. coli topoisomerase IV, read-out: IC50 Topo IV): 10 µM | IC50 (E. coli topoisomerase IV; averages of three independent experiments, read-out: IC50 in the E. coli Topoisomerase IV inhibition assay): 10 µM | ratios IC50(topo IV)/IC50(gyrase) (E. coli topoisomerase IV; topo IV vs. gyrase): ~14
